The target of one test is T1, V1a receptors (Rattus norvegicus, UniProt P30560).
T1 construct: Rat choroid plexus (RCP) cell lines express functional V1a receptors; endogenous in cells; host or cells: rat choroid plexus (RCP) cell line, RCP P9(18)
Nature of the test: AVP induced phospho-ERK measurement in rat choroid plexus (RCP) cells. In kind it is cell-based. Particulars: RCP cells stimulated with AVP, pERK1/2 to total ERK1/2 ratio. On the procedure:
Rat choroid plexus (RCP) cell lines express functional V1a receptors measured by increased calcium concentrations in response to V1a receptor agonists (Battle et al., Biochem. Biophys. Res. Comm. 2000).
RCP P9(18) cells were seeded 30K/well, in 100 μl growth medium containing 10% FBS in polystyrene 96-well plates and incubated at 37° C., 5% CO2 and incubated overnight. The following day, the growth medium was replaced with 50 μl pre-warmed HBSS containing 20 mM HEPES and the cells were incubated at 37° C., 5% CO2 for 1.5 hrs. 1 mM AVP (Sigma V9879) was freshly prepared in distilled water in a glass vial and diluted to 3× concentrations in HBSS containing 20 mM HEPES and 0.1% BSA in glass vials and kept on ice. […] Final concentrations of AVP: 10, 100 or 1000 nM. […] Cells were lysed with 25 μl 4×CST lysis buffer containing protease and phosphatase inhibitors, PMSF and SDS and then stored at −80° C., for 48 h. The lysates were thawed, centrifuged at 2000 g for 30 min at 4° C. and 40 μl supernatants assayed for pERK1/2 (Thr202/Tyr204; Thr185/Tyr187) and total ERK1/2 using MSD kit K15107D. The MSD ECL data for the lysates were corrected for no cell blanks, then phospho-protein levels expressed as a ratio to the total ERK1/2 level. The ratios were expressed as fold-change from the vehicle-treated control at each timepoint.

A further test relates to Male CD-1 mice. Nature of the test: AVP induced scratching, digging and grooming behavior in mouse. In kind it is in vivo. As to conditions: po, AVP i.c.v., 15 minutes observation. From the text: Administration of Arginine-Vasopressin (AVP) intracerebroventricularly (i.c.v.) elicits characteristic scratching, digging and grooming behavior in mice that can be measured readily and is sensitive to blockade with vasopressin antagonists (Meisenberg, Ann N Y Acad Sci. 525:257-69, 1988; Bleickardt et. al., Psychopharmacology (Berl). 202(4):711-8, 2009).
Male CD-1 mice (Charles River Germany) weighing 22-25 g upon the study in-life were used for this study. Animals were housed in groups of 4-5 per cage in standard temperature (22±1° C.) and light-controlled environment (lights on from 7 am to 8 pm), with ad libitum access to food and water. Prior to commencing any procedures to the mice, they were allowed to habituate in the vivarium for a minimum of 7 days. Anesthesia was induced in a plexiglass chamber for 2-3 min with 5% isoflurane and maintained through a snout mask with 1-2% isoflurane thereafter. A homeothermic blanket system with a rectal probe was used to monitor and maintain the animal's body temperature at 37.0° C.±1.5° C. during the operation. Anesthetized mice were placed in a stereotaxic apparatus and skin between the ears shaved and disinfected with povidone-iodine solution (Betadine). A 10-μl Hamilton syringe with 28-gauge needle was used for the i.c.v. injections. All animals receive identical AVP injections (3.689 μM) or sterile saline (0.9% sodium chloride solution) into the right lateral ventricle at the following coordinates: AP=+0.5 mm; ML=+1.0 mm; DV=−2.5 mm (approximately from bregma). The actual coordinates were calculated by the distance from the point in midline between the eyes and no skin incision was made. […]
Mice were observed and video-recorded for 15 minutes following AVP/saline administration and behaviors were measured (in seconds) and a cumulative time was calculated. […] Using this assay, balovaptan (100 and 300 mg/kg, po), JNJ-17308616 (30, 100 mg/kg, po) and Compound No. 1-83B (100, 300, 500 mg/kg, po) were evaluated for antagonist activity to AVP-induced scratching behaviors.

T1 sequence (P30560 whole entry): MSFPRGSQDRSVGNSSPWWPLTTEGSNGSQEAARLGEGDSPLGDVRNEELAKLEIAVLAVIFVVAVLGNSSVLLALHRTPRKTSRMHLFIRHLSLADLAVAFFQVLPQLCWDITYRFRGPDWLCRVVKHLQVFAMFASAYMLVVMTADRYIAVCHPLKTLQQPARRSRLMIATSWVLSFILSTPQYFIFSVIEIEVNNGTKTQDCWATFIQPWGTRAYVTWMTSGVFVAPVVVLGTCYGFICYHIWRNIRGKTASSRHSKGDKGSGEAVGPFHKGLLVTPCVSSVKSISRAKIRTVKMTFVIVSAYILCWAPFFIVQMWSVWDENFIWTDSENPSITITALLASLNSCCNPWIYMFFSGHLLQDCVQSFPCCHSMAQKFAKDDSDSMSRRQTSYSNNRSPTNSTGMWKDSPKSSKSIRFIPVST

For orientation: IC50 means the concentration at which inhibition is half-maximal. In the case of `CC1COc2cc(Cl)ccc2N1C(=O)N1CC2(C1)CN(c1ncccn1)C2` (single isomer, unassigned) [1-83-B, (7-chloro-3-methyl-2,3-dihydro-4H-benzo[b][1,4]oxazin-4-yl)(6-(pyrimidin-2-yl)-2,6-diazaspiro[3.3]heptan-2-yl)methanone], the IC50 on V1a receptors (first study) was 16 nM; on V1a receptors (second study), 20 nM. Besides, the “antagonist activity to AVP-induced scratching behaviors” value in the test on Male CD-1 mice (300 mg/kg) and with Male CD-1 mice (500 mg/kg) was “effective” in each case.
